Assay results reported in patent publication US20070218504A1, “HUMAN LEPTIN-DERIVED POLYPEPTIDES AND USES THEREOF” (UNIVERSITY OF PITTSBURGH, priority 2006, published 2007).

How the values were obtained:
[1] = molecular target: T1, long-form human leptin receptor, OB-Rb (Homo sapiens, UniProt P48357); experiment: 125I-labeled human leptin binding to OB-Rb on stably transfected HEK293 cells, with or without pre-incubation with human CRP
T1 construct: expressed in transfected cells
T1 sequence (P48357 22-1165): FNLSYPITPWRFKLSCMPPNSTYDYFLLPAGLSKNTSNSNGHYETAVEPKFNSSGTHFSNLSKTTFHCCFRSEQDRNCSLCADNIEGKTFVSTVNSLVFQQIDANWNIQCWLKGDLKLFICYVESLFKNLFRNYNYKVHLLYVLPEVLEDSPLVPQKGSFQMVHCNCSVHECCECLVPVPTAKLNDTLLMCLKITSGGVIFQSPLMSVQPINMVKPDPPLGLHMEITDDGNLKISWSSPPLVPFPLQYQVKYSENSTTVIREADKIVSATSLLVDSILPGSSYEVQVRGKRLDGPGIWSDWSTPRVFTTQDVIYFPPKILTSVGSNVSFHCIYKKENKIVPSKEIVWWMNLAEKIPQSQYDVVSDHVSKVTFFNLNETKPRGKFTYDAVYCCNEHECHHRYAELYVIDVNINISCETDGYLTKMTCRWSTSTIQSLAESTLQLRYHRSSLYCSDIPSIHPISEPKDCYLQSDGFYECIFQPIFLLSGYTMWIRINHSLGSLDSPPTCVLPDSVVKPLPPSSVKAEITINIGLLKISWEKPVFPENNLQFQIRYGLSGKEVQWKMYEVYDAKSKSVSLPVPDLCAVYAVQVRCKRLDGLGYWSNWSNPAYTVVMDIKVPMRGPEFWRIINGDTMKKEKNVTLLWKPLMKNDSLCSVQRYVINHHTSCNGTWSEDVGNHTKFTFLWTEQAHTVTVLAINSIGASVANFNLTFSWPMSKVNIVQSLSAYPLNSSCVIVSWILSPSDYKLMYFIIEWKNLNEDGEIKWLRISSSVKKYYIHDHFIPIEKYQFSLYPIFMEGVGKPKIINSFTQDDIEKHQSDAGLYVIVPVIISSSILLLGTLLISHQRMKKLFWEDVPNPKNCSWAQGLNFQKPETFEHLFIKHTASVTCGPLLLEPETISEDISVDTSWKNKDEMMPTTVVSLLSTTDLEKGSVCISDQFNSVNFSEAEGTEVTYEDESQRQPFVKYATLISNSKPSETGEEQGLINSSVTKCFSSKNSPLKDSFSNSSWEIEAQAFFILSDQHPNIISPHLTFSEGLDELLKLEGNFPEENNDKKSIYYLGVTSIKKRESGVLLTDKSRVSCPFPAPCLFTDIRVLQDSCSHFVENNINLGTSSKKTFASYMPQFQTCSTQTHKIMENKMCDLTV
Procedure: FIG. 4A. Interference effect of human CRP on human leptin binding to its receptor. HEK293 cells stably transfected with the long-form human leptin receptor, OB-Rb (14), are used to examine whether human CRP interferes with the ability of human leptin to bind to its receptor. […] The dashed line at the bottom right of the graph indicates ^125I-leptin bound when two thousand fold excess of non-labeled leptin is added.
To examine if CRP binding interferes with the stability of human leptin to bind to its receptors, a HEK293 cell line stably transfected with the long-form human leptin receptor, OB—Rb, was used (17). Human leptin was iodinated with Na^125I using the lodogen method. Briefly, 15 μg of recombinant human leptin in 100 mM Phosphate buffer pH 7.5 were incubated with 1 mCi of carrier-free Na^125I (2200 Ci/mmol) in a glass tube containing 50 μg Iodogen. After 10-minute incubation at room temperature, the reaction was stopped with 100 μl 0.1% trifluoroacetic acid (TFA). The reaction mixture was immediately purified by reverse-phase HPLC. The separation employed a 5-minute isocratic step at 20% eluant B in A, followed by two consecutive 30 min linear gradients from 20 to 50%, then from 50 to 60% eluant B in A (where eluant A is water containing 0.1% TFA and eluant B is acetonitrile containing 0.1% TFA) at a flow rate of 1.5 ml/min. […]

CRP-transgenic mice = experiment: Human leptin infusion in mice transgenically expressing human CRP and wild-type littermates; format: in vivo, mouse
Procedure: To complement the in vivo studies further, the satiety and weight-reducing functions of human leptin were evaluated in mice producing transgenically expressed human CRP (24). The average baseline serum concentration of human CRP in these mice was approximately 15 μg/ml. […] To evaluate the effects of human leptin in the transgenic mice, a dose of 0.6 mg/kg/day, which has been known to maximally but only temporarily affected energy balance in wild-type mice (25), was infused. […] At the end of infusion, the total human leptin concentration in the sera of transgenic mice averaged at 7.6 ng/ml, which was higher than that in the wild-type littermates at 3.2 ng/ml.

[2] = system: tyrosine phosphorylation of STAT3 in the hypothalamic tissues; experiment: Tyrosine phosphorylation of STAT3 in hypothalamic tissues after i.c.v. injection (Western blot); format: in vivo, mouse
Procedure: The hypothalamic tissues were surgically dissected right after sacrificing the mice. A portion of each tissue was extracted for protein in a protein lysis buffer. The activation of STAT3 was evaluated using Western blot assays with an antibody against phospho-tyrosine-STAT3 as described above (Cell Signaling, Beverly, Mass.). The membrane was striped and applied with an antibody against STAT3 to evaluate the overall level of STAT3 (Cell Signaling, Beverly, Mass.).
To determine whether the interaction between human CRP and leptin dampens the cellular actions of leptin, an assessment was made of the ability of leptin to stimulate tyrosine phosphorylation of STAT3 in the hypothalamic tissues. As described above, human CRP at 2.3 μg/injection or PBS was pre-injected via i.c.v., followed by an injection of human leptin or mouse leptin, each at 100 ng/injection. Subsequently, the hypothalamic tissues were dissected and immediately placed into liquid nitrogen for a rapid freezing. A portion of the frozen tissue was homogenized in a protein lysis buffer for the extraction of proteins. The protein extract was then subjected to Western blot assay as described above.

| Substance | IC50 of human CRP for reducing 125I-labeled human leptin binding to its receptor ([1]; in the presence of about 2 ng/ml human leptin, 1 hour pre-incubation) | effect of human CRP alone on food intake and body weight (CRP-transgenic mice; CRP transgenic mice, no human leptin) | average baseline serum concentration of human CRP (CRP-transgenic mice; mice transgenically expressing human CRP) | effect of CRP pre-injection on human leptin-induced STAT3 activation ([2]; human CRP 2.3 μg/injection) | effect of CRP pre-injection on mouse leptin-induced STAT3 activation ([2]; human CRP 2.3 μg/injection) | Kd ([1]; HEK293 cells stably transfected with OB-Rb) | physiological effects of human leptin in CRP-transgenic mice (CRP-transgenic mice; 0.6 mg/kg/day infusion, CRP-transgenic mice) | effect of human leptin on food intake, body weight, epidydimal fat-pad weight in wild-type littermates (CRP-transgenic mice; 0.6 mg/kg/day infusion, wild-type littermates) | total human leptin concentration in sera, transgenic mice (CRP-transgenic mice; end of infusion, CRP transgenic mice) | total human leptin concentration in sera, wild-type littermates (CRP-transgenic mice; end of infusion, wild-type littermates) | level of phosph-STAT3 in hypothalamic tissues after leptin ([2]; human leptin 100 ng/injection following PBS) |
| --- | --- | --- | --- | --- | --- | --- | --- | --- | --- | --- | --- |
| human CRP: human C-reactive protein, purified preparation from a commercial source | approximately 80 ng/ml | did not meaningfully affect | approximately 15 μg/ml | drastically diminished | did not block | – | – | – | – | – | – |
| human leptin: human recombinant leptin | – | – | – | – | – | 1 nM | completely blunted | expected reductions in food intake, body weight, and epidydimal fat-pad weight | 7.6 ng/mL | 3.2 ng/mL | sharp increase |
